Data as given in ChEMBL document CHEMBL3414512, “Discovery of orally active anticancer candidate CFI-400945 derived from biologically promising spirooxindoles: success and challenges” (Eur J Med Chem, 2015).

Legend:
[1] = biological target: Serine/threonine-protein kinase PLK3 (Homo sapiens, UniProt Q9H4B4); assay: Inhibition of PLK-3 (unknown origin)
[2] = biological target: Serine/threonine-protein kinase PLK2 (Homo sapiens, UniProt Q9NYY3); assay: Inhibition of PLK-2 (unknown origin)
[3] = Inhibition of SLC34A2/ROS (unknown origin); design: species or system Homo sapiens
[4] = biological target: Serine/threonine-protein kinase PLK1 (Homo sapiens, UniProt P53350); assay: Inhibition of PLK-1 (unknown origin)
[5] = biological target: Fibroblast growth factor receptor 1 (Homo sapiens, UniProt P11362); assay: Inhibition of FGFR1 (unknown origin)
Sequence of Fibroblast growth factor receptor 1 (P11362 whole entry): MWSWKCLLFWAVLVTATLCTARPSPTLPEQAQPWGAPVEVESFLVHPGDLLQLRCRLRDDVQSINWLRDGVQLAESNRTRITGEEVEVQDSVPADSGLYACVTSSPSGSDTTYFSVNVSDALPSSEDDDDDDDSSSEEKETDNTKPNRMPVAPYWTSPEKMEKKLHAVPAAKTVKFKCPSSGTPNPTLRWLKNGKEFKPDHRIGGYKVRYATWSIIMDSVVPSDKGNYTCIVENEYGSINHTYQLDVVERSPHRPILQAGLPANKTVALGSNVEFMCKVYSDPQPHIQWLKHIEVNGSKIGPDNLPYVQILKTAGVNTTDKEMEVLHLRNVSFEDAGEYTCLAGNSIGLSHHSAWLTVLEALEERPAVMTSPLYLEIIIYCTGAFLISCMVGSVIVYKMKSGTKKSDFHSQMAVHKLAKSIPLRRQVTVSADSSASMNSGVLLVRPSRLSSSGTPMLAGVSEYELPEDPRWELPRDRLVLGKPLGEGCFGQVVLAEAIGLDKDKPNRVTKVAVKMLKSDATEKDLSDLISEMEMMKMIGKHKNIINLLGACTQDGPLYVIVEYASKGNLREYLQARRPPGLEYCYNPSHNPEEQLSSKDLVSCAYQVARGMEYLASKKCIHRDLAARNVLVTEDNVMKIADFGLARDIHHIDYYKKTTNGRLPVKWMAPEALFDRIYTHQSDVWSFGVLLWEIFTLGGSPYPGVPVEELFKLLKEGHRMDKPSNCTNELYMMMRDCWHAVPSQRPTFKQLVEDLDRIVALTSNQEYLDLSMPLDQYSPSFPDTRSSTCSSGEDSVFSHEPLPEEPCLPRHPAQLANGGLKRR

Sequence of Serine/threonine-protein kinase PLK3 (Q9H4B4 whole entry): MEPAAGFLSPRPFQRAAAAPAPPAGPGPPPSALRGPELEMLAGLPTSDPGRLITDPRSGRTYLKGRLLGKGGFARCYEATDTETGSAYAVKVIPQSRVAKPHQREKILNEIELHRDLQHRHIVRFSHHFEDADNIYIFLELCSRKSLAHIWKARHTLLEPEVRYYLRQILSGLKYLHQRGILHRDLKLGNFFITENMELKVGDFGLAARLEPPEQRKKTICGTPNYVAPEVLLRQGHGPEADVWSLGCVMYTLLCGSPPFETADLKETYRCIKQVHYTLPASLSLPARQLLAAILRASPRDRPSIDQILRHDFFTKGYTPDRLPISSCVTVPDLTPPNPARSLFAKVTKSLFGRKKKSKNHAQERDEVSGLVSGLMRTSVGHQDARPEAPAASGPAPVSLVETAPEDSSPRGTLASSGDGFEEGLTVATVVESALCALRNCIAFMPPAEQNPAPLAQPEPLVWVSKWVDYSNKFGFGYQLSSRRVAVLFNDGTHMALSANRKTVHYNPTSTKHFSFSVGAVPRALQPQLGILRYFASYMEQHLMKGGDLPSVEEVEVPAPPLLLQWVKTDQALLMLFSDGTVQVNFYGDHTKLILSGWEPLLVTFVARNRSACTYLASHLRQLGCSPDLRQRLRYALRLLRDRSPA
Sequence of Serine/threonine-protein kinase PLK1 (P53350 whole entry): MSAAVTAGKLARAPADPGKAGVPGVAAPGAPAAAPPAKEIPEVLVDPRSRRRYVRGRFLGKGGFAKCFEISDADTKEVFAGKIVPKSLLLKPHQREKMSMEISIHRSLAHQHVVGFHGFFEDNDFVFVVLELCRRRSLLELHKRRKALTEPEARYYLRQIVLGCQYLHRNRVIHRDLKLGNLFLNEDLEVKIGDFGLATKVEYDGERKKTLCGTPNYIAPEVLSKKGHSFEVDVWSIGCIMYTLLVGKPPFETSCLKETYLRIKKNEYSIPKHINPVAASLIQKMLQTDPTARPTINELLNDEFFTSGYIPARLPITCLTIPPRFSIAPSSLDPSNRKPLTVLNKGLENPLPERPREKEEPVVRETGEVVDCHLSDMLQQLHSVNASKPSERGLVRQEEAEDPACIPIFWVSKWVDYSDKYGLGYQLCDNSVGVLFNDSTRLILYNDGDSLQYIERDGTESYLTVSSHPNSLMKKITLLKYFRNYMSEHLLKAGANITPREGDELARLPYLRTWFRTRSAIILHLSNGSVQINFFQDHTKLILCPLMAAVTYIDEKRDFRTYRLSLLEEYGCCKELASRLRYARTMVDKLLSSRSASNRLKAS
Sequence of Serine/threonine-protein kinase PLK2 (Q9NYY3 whole entry): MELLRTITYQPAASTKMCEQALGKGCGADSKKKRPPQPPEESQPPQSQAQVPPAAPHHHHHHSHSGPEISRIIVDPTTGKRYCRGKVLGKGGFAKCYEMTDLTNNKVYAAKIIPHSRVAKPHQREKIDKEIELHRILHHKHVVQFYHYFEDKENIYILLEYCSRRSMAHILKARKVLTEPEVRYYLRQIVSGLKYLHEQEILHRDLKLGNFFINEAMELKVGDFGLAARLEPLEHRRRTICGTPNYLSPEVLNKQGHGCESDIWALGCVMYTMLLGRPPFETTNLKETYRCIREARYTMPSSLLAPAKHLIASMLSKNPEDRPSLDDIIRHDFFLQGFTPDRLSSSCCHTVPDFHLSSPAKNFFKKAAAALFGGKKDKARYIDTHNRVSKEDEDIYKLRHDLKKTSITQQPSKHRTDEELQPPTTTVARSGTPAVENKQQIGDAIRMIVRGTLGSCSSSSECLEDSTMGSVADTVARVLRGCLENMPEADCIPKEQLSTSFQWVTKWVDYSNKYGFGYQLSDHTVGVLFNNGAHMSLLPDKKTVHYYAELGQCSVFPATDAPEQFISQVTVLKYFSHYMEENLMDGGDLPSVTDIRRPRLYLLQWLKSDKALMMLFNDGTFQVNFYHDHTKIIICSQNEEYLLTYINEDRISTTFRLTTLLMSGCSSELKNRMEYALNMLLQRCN

IC50 [1]: > 50000 nM | IC50 [2]: > 50000 nM | EC50 [3]: 466 nM | IC50 [4]: > 50000 nM | EC50 [5]: 1100 nM
SMILES: COc1ccc2c(c1)[C@]1(C[C@H]1c1ccc3c(/C=C/c4ccc(CN5C[C@@H](C)O[C@@H](C)C5)cc4)n[nH]c3c1)C(=O)N2 [OCIFISERTIB]
